Test results: the NIST ThermoML archive (doi:10.1021/acs.jced.7b00191)
Numbers after ± are expanded uncertainties.

Conditions: Liquid; Visual observation in an unstirred cell

Critical temperature | SMILES
540.6 ± 2.8 K | CCCCCCC [heptane]
507.4 ± 2.8 K | CCCCCC [hexane]
568.8 ± 2.8 K | CCCCCCCC [octane]

The next lines start with the molecule.

SMILES | Critical temperature
Fc1ccccc1 [fluorobenzene] | 557.3 ± 2.8 K
CC(C)CC(C)(C)C [2,2,4-trimethylpentane] | 544 ± 2.8 K
Clc1ccccc1Cl [1,2-dichlorobenzene] | 698.8 ± 2.8 K
CCC(C)(C)C [2,2-dimethylbutane] | 489.4 ± 2.8 K
c1ccccc1 [benzene] | 562.2 ± 2.8 K
